Starred links: 1 amine or outer side, 2 acyl side, 3 side chain; linkers in the order of their positions; H or OH if unused. Non-standard residues stand in square brackets, D forms with d. Residues, ends and D or L forms follow the SMILES beside them. No end group written: not given here. *: point of attachment. X1 = NC(=O)C[C@@H](C(=O)[*:2])N(C[C@@H](N)Cc1ccc(O)cc1)[*:1]; NαAmidinoTrp = N=C(N)N[C@@H](Cc1c[nH]c2ccccc12)C(=O)*; Diphenylacetyl = O=C(C(c1ccccc1)c1ccccc1)*; Phe(4-F) = N[C@@H](Cc1ccc(F)cc1)C(=O)O; Arg(Me) = CNC(=N)NCCC[C@H](N)C(=O)O; Tryptamide = c1ccc2c(CCN*)c[nH]c2c1; 4Pal = N[C@@H](Cc1ccncc1)C(=O)O; Cha = N[C@@H](CC1CCCCC1)C(=O)O; CO = O=C([*:1])[*:2]; Bz = O=C(c1ccccc1)*; azaGly = NNC(=O)O
Legend:
hOT7T175 [1] = target: T1, hOT7T175 (Homo sapiens, UniProt Q969F8, L364H); assay type: cell-based; details: hOT7T175/CHO, FLIPR, evaluation for 40 seconds after initiation of the reaction
T1 construct: expressed in transfected cells
T1 sequence (Q969F8 whole entry L364H): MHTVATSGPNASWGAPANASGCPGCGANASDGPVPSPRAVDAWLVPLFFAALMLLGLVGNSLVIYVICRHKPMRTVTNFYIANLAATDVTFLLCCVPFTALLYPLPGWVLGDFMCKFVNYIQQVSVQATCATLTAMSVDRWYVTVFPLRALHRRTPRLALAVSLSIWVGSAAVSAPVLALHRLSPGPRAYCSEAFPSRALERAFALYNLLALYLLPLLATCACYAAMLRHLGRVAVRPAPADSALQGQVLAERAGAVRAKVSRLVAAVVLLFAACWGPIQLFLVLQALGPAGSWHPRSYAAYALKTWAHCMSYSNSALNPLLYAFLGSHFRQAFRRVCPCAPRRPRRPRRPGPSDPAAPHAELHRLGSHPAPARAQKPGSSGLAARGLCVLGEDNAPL
Method: The intracellular Ca ion level-increasing activity was measured using FLIPR as in TEST EXAMPLE 2.

hOT7T175 [2] = target: T2, hOT7T175 (Homo sapiens, UniProt Q969F8); test: Intracellular Ca ion level-increasing activity using FLIPR (180 seconds; specific activity to Metastin (1-54)); assay type: cell-based; details: hOT7T175/CHO, change in intracellular calcium ion level for 180 seconds, Tables 21-23
T2 construct: expressed in transfected cells
T2 sequence (Q969F8 whole entry L364H): as above

Compound | Specific Act. (EC50/MS10 EC50) (hOT7T175 [1]) | intracellular Ca ion level-increasing activity [specific activity to Metastin (1-54)] (hOT7T175 [2])
6-(Trifluoromethyl)nicotinoyl-Phe-AzaGly-Leu-Arg(Me)-Trp-NH2 [Compound No. 464] | 10.5 | 1
Benzoyl-Phe-AzaGly-Leu-Arg(Me)-Trp-NH2 [Compound No. 353] | 0.8 | 10
CC(C)C[C@H](NC(=O)CNC(=O)[C@H](Cc1ccccc1)NC(=O)[C@H](CO)NC(=O)[C@H](CC(N)=O)NC(=O)[C@H](Cc1c[nH]c2ccccc12)NC(=O)[C@H](CC(N)=O)NC[C@@H](N)Cc1ccc(O)cc1)C(=O)N[C@@H](CCCNC(=N)N)C(=O)N[C@@H](Cc1ccccc1)C(N)=O [Compound No. 294] (H-[X1]WNSFGLRF-NH2) | 0.7 | 10
2-(Indol-3-yl)ethylcarbamoyl-Phe-AzaGly-Leu-Arg(Me)-Trp-NH2 [Compound No. 369] | 4.8 | 2
Pyrimidine-4-carbonyl-Phe-AzaGly-Leu-Arg(Me)-Trp-NH2 [Compound No. 475] | 4.2 | 3
[dY][dW]ATF[azaGly]L[Arg(Me)]W-NH2 [Compound No. 511] | 0.5 | 10
D-Tyr-D-Pya(4)-Asn-Trp-Phe-AzaGly-Leu-Arg(Me)-Trp-NH2 [Compound No. 491] | 1.0 | 7
D-Tyr-D-Pya(4)-Asn-Ser-Cha-Ala-Leu-Arg(Me)-Trp-NH2 [Compound No. 497] | 1.4 | 2
CNC(=N)NCCC[C@H](NC(=O)[C@H](CC(C)C)NC(=O)NNC(=O)[C@H](Cc1ccccc1)NC(=O)[C@H](CO)NC(=O)[C@H](CC(N)=O)NC(=O)[C@H](Cc1ccncc1)NC(=O)[C@@H](CC(N)=O)NC(=O)[C@H](N)Cc1ccc(O)cc1)C(=O)N[C@@H](Cc1ccccc1)C(N)=O [Compound No. 303, D-Tyr-D-Asn-Pya(4)-Asn-Ser-Phe-AzaGly-Leu-Arg(Me)-Phe-NH2] (H-[dY][dN][4Pal]NSF[azaGly]L[Arg(Me)]F-NH2) | 6.9 | 5
Pyrrole-3-carbonyl-Phe-AzaGly-Leu-Arg(Me)-Trp-NH2 [Compound No. 474] | 3.2 | 5
Benzoyl-PheΨ(NHCO)Gly-Leu-Arg(Me)-Trp-NH2 [Compound No. 423] | 5.6 | 5
CNC(=N)NCCC[C@H](NC(=O)[C@H](CC(C)C)NC(=O)NNC(=O)[C@H](Cc1ccccc1)NC(=O)[C@@H](NC(=O)[C@H](CC(N)=O)NC(=O)[C@H](Cc1c[nH]c2ccccc12)NC(=O)[C@H](CC(N)=O)NC(=O)[C@H](N)Cc1ccc(O)cc1)[C@@H](C)O)C(=O)N[C@@H](Cc1ccccc1)C(N)=O [Compound No. 297, D-Tyr-Asn-Trp-Asn-Thr-Phe-AzaGly-Leu-Arg(Me)-Phe-NH2] (H-[dY]NWNTF[azaGly]L[Arg(Me)]F-NH2) | 5.5 | 1
Bz-F[azaGly]L[Arg(Me)]F-NH2 [Compound No. 341] | 2.8 | 2
3-Phenylpropionyl-Ala-Ser-Phe-AzaGly-Leu-Arg(Me)-Trp-NH2 [Compound No. 500] | 3.2 | 1
D-Tyr-D-Pya(4)-Thr-Ser-Phe-AzaGly-Leu-Arg(Me)-Trp-NH2 [Compound No. 493] | 2.2 | 2
CNC(=N)NCCC[C@H](NC(=O)[C@H](CC(C)C)NC(=O)NNC(=O)[C@H](Cc1ccccc1)NC(=O)[C@H](CO)NC(=O)[C@H](CC(N)=O)NC(=O)NCCc1c[nH]c2ccccc12)C(=O)N[C@@H](Cc1ccccc1)C(N)=O [Compound No. 279, 2-(indol-3-yl)ethylcarbamoyl-Asn-Ser-Phe-AzaGly-Leu-Arg(Me)-Phe-NH2] ({Tryptamide-CO}-NSF[azaGly]L[Arg(Me)]F-NH2) | 6.4 | 5
Pyrimidine-2-carbonyl-Phe-AzaGly-Leu-Arg(Me)-Trp-NH2 [Compound No. 479] | 2.6 | 5
Cyclopropanecarbonyl-Cha-AzaGly-Leu-Arg(Me)-Trp-NH2 [Compound No. 451] | 2.6 | 5
D-Tyr-D-Pya(4)-Asn-Ser-Phe-AzaGly-Leu-Har-Phe-NH2 [Compound No. 488] | 5.5 | 1

Compound | Specific Act. (EC50/MS10 EC50) (hOT7T175 [1]) | intracellular Ca ion level-increasing activity [specific activity to Metastin (1-54)] (hOT7T175 [2])
[dY][dW]ASF[azaGly]L[Arg(Me)]W-NH2 [Compound No. 503] | 0.4 | 10
D-Tyr-Pya(4)-Asn-Ser-Phe-AzaGly-Leu-Arg(Me)-Phe-NH2 [Compound No. 490] | 6.2 | 3
3-Phenylpropionyl-Asn-Ser-Trp-AzaGly-Leu-Arg(Me)-Trp-NH2 [Compound No. 507] | 1.7 | 5
CNC(=N)NCCC[C@H](NC(=O)[C@H](CC(C)C)NC(=O)CNC[C@H](Cc1ccccc1)NC(=O)[C@H](CO)NC(=O)[C@H](CC(N)=O)NC(=O)[C@H](Cc1c[nH]c2ccccc12)NC(=O)[C@H](CC(N)=O)NC(=O)[C@H](N)Cc1ccc(O)cc1)C(=O)N[C@@H](Cc1ccccc1)C(N)=O [Compound No. 308, D-Tyr-Asn-Trp-Asn-Ser-PheΨ(CH2NH)Gly-Leu-Arg(Me)-Phe-NH2] | 2.6 | 2
CNC(=N)NCCC[C@H](NC(=O)[C@H](CC(C)C)NC(=O)NNC(=O)[C@H](Cc1ccccc1)NC(=O)[C@H](CO)NC(=O)[C@H](CC(N)=O)NC(=O)C(c1ccccc1)c1ccccc1)C(=O)N[C@@H](Cc1ccccc1)C(N)=O [Compound No. 268, Diphenylacetyl-Asn-Ser-Phe-AzaGly-Leu-Arg(Me)-Phe-NH2] (Diphenylacetyl-NSF[azaGly]L[Arg(Me)]F-NH2) | 4.5 | 1
2-Aminoethyl-Gly-D-Tyr-Asn-Trp-Asn-Ser-Phe-Gly-Leu-Arg(Me)-Phe-NH2 [Compound No. 375] | 5.2 | 2
Bz-[Cha][azaGly]L[Arg(Me)]W-NH2 [Compound No. 449] | 4.2 | 5
CNC(=N)NCCC[C@H](NC(=O)[C@H](CC(C)C)NC(=O)NNC(=O)[C@H](Cc1ccccc1)NC(=O)[C@H](CO)NC(=O)[C@H](CC(N)=O)NC(=O)[C@H](Cc1ccncc1)NC(=O)[C@@H](CC(N)=O)NC(=O)[C@H](N)Cc1ccc(O)cc1)C(=O)N[C@@H](Cc1ccc(F)cc1)C(N)=O [Compound No. 317, D-Tyr-D-Asn-Pya(4)-Asn-Ser-Phe-AzaGly-Leu-Arg(Me)-Phe(4F)-NH2] (H-[dY][dN][4Pal]NSF[azaGly]L[Arg(Me)][Phe(4-F)]-NH2) | – | 1
CNC(=N)NCCC[C@H](NC(=O)[C@H](CC(C)C)NC(=O)NNC(=O)[C@H](Cc1ccccc1)NC(=O)[C@H](Cc1ccccc1)NC(=O)[C@H](CO)NC(=O)[C@H](CC(N)=O)NC(=O)[C@H](Cc1ccccc1)NC(=O)[C@H](CC(N)=O)NC(=O)[C@H](N)Cc1ccc(O)cc1)C(=O)N[C@@H](Cc1ccccc1)C(N)=O [Compound No. 270, D-Tyr-Asn-Phe-Asn-Ser-Phe-Phe-AzaGly-Leu-Arg(Me)-Phe-NH2] (H-[dY]NFNSFF[azaGly]L[Arg(Me)]F-NH2) | – | 1
Indole-3-acetyl-Phe-AzaGly-Leu-Arg(Me)-Phe-NH2 [Compound No. 345] | – | 2
1-Oxo-isochroman-3-carbonyl-AzaGly-Leu-Arg(Me)-Trp-NH2 [Compound No. 408] | – | ⅓
Indole-3-carbonyl-Phe-AzaGly-Leu-Arg(Me)-Phe-NH2 [Compound No. 344] | – | ½
CNC(=N)NCCC[C@H](NC(=O)[C@H](CC(C)C)NC(=O)NNC(=O)[C@H](Cc1ccccc1)NC(=O)[C@H](CO)NC(=O)[C@H](CC(N)=O)NC(=O)[C@H](Cc1c[nH]c2ccccc12)NC(=N)N)C(=O)N[C@@H](Cc1ccccc1)C(N)=O [Compound No. 273, Amidino-Trp-Asn-Ser-Phe-AzaGly-Leu-Arg(Me)-Phe-NH2] (NαAmidinoTrp-NSF[azaGly]L[Arg(Me)]F-NH2) | – | 5
(S)-1-(Quinolin-8-yl-carbamoyl)-4-thiapentylcarbamoyl-D-Tyr-Asn-Trp-Asn-Ser-Phe-Gly-Leu-Arg(Me)-Phe-NH2 [Compound No. 400] | – | 1
5-Methylnicotinoyl-Phe-AzaGly-Leu-Arg(Me)-Trp-NH2 [Compound No. 444] | – | ⅓
D-Tyr-D-Pya(4)-Asn-Ser-Phe-AzaGly-Leu-Lys-Phe-NH2 [Compound No. 487] | – | 1
Bz-FGLRF-NH2 [Compound No. 351] | – | ½
3-Pyridinecarbonyl-Phe-AzaGly-Leu-Arg(Me)-Trp-NH2 [Compound No. 432] | – | 2
